In PMC4396695, “Structure of the Ribosomal Oxygenase OGFOD1 Provides Insights into the Regio- and Stereoselectivity of Prolyl Hydroxylases” (Structure(London, England:1993), 2015):

Legend:
Tpa1p [1] = biological target: T1, Tpa1p (Saccharomyces cerevisiae, UniProt P40032); test: X-ray crystal structure, […] Å; assay type: binding
T1 construct: gene TPA1; full-length (644 aa), N-terminal hexa-histidine tag

OGFOD1 [2] = biological target: T2, OGFOD1 (Homo sapiens, UniProt Q8N543); test: hydroxylation of uS12 […]-70 peptide by MALDI-TOF MS; assay type: biochemical; parameters: 542 aa, N-terminal hexa-histidine tag
T2 sequence (Q8N543 1-542): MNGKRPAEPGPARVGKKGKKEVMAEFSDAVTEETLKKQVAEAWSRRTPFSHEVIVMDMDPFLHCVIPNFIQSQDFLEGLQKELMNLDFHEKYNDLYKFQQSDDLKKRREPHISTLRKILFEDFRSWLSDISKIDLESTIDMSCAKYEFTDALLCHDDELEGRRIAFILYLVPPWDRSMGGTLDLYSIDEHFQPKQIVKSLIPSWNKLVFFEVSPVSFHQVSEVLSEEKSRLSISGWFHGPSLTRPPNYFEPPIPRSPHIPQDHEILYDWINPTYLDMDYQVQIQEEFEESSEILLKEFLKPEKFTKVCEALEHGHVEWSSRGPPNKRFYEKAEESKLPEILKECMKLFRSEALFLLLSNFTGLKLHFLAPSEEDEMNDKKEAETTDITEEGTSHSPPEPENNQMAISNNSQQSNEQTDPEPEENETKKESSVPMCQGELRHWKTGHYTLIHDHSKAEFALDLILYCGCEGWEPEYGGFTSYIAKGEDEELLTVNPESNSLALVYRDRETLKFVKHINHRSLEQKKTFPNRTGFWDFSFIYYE

OGFOD1 [3] = biological target: T2, OGFOD1; test: X-ray crystal structure, […] Å (also enzyme inhibition, Figure 6A); assay type: binding; parameters: full-length (542 aa), N-terminal hexa-histidine tag
Tpa1p [4] = biological target: T1, Tpa1p; test: X-ray crystal structure, […] Å; assay type: binding; remark: listed apart in the source

T1 sequence (P40032 whole entry): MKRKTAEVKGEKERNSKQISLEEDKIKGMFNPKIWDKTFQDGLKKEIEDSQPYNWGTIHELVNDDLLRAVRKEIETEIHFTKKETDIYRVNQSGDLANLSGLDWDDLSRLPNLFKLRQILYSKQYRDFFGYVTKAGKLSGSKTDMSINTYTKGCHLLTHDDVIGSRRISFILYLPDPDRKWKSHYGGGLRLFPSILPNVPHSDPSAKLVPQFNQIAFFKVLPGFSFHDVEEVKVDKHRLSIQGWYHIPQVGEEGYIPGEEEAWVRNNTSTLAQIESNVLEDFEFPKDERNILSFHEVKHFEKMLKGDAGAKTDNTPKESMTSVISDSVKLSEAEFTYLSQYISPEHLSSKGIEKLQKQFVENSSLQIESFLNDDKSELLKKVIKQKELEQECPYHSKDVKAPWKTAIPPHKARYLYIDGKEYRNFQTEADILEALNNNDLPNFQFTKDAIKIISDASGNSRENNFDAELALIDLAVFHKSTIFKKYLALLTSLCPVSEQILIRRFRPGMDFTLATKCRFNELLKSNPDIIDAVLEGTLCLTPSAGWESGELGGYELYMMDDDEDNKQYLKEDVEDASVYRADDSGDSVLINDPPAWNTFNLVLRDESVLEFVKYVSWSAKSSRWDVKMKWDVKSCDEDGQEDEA

X-ray crystal structure, 2.8 Å (Tpa1p [4]) | SMILES | X-ray crystal structure, 1.9 Å (Tpa1p [1]) | IC50 (OGFOD1 [2]) [µM] | X-ray crystal structure, 2.1 Å (also enzyme inhibition, Figure 6A) (OGFOD1 [3])
 | O=C(O)CNC(=O)c1nc(Cl)c2ccccc2c1O [IOX3, 1-chloro-4-hydroxyisoquinoline-3-carbonylglycine] | In Tpa1p, IOX3 binds similarly to NOG with its glycyl side chain carboxylate positioned to form a salt bridge | 0.52 ± 0.08 | 
OGFOD1 and Tpa1p bind NOG similarly. | O=C(O)CNC(=O)C(=O)O [N-oxalylglycine] |  |  | With OGFOD1 the C-5 carboxylate of NOG is positioned to form hydrogen bonds to the side chains of Tyr169 and Arg230
